“Also recorded” adds a separate entry of the source. Where two headings read alike, the source gives them in different places.
Tests used:
[1] = test system: bone marrow-derived macrophages from WT mice; experiment: Osteoclastogenesis / cell fusion of bone marrow-derived macrophages of WT mice under M-CSF+RANKL (TRAP+ osteoclast-like cells); assay type: cell-based, mouse
From the text: Bone marrow- and spleen-derived mouse osteoclasts. These cells were generated from four- to twelve-week-old sk4^+/+ and sk4^−/− mice as previously described (Cui et al. (2007) Proc. Natl. Acad. Sci. USA 104:14436-14441; Epub 2007 Aug. 28). Bone marrow and spleen cells were isolated, mechanically dissociated and cultured at a density of 1.33×10^6 cells per cm^2 in MEM containing 10% heat-inactivated fetal bovine serum (HyClone, Logan, Utah), 100 units/ml penicillin-streptomycin (Gibco Invitrogen, Carlsbad, Calif.), 1% MEM vitamins, 1% glutamine, and 30 ng/ml M-CSF (PeproTech, Inc. Rocky Hill, N.J.). RANKL (PeproTech, Inc.) was added at a concentration of 40 ng/ml. Media was changed every three days. To assess the formation of an actin ring, a landmark of osteoclast activity, cells were cultured in the presence of M-CSF (20 ng/ml) and RANKL (40 ng/ml) on glass slides for 8 days, fixed and reacted with phalloidin-Alexa 568 and Topro-3. To further assess resorptive activity, cells were cultured on Osteologic slides that are coated with artificial bone made of calcium-phosphate crystals. After 8 days, cells were lysed and the substrates stained with silver nitrate according to the supplier's instructions. The resorbed areas on slides were recorded by histomorphometry.

human PBMCs = experiment: Human osteoclastogenesis / cell fusion of PBMCs under M-CSF+RANKL stimulation (TRAP+ osteoclast-like cells); assay type: cell-based; conditions: for IC50: PBMC, read-out: inhibition of cell fusion, IC50; for osteoclast number / osteoclast surface area: dose-dependent
Protocol: Human osteoclasts. These cells were generated using normal peripheral blood blood (Allcells, Emeryville, Calif.). Peripheral blood monocytes were isolated using Ficoll-Paque and cultured at a concentration of 3×10^6 cells/ml in MEME supplemented with 10% FCS, recombinant human M-CSF (25 ng/ml) and recombinant human RANKL (40 ng/ml). The medium was changed once a week.

SK4 channels = SK4 channels (Homo sapiens, UniProt O15554); conditions: cited from earlier work
[2] = general statement in the definition of SK4 channels

Molecule	IC50 (human PBMCs; FIGS. 10A-B) [nM]	osteoclast number (human PBMCs)	osteoclast surface area (human PBMCs)	block of SK4 channels (SK4 channels; [2])	other results
NC(=O)C(c1ccccc1)(c1ccc(F)cc1)c1ccc(F)cc1 [ICA-17043, 2,2-bis(4-fluorophenyl)-2-phenylacetamide]	300	decreased	decreased		osteoclastogenesis (surface area of TRAP+ osteoclast-like cells, POC relative to no compound control) ([1]; bone marrow-derived macrophages of WT (SK4+/+) mice, FIGS. 7A-B, five replicates): attenuated osteoclastogenesis in a dose dependent manner; also recorded: prevent osteoclastogenesis in a dose-dependent manner; concentration at which cell fusion was significantly inhibited (TRAP-stained images) ([1]; bone marrow-derived macrophages of WT mice, FIG. 7C): 0.36 µM; human osteoclastogenesis in vitro (surface area of TRAP+ osteoclast-like cells, POC relative to no compound control) (human PBMCs; FIGS. 10A-B, four replicates): inhibited human osteoclastogenesis in vitro in a dose-dependent manner; also recorded: prevent osteoclastogenesis in a dose-dependent manner
Clc1ccccc1C(c1ccccc1)(c1ccccc1)n1cccn1 [TRAM-34, 1-[(2-chlorophenyl)diphenylmethyl]-1H-pyrazole]	800	decreased	decreased		
Clc1ccccc1C(c1ccccc1)(c1ccccc1)n1ccnc1 [clotrimazole, 1-[(2-chlorophenyl)-diphenylmethyl]-1H-imidazole]					block of SK4 channels (SK4 channels): blocked
CC(=O)N1CCN(c2ccc(OCC3COC(Cn4ccnc4)(c4ccc(Cl)cc4Cl)O3)cc2)CC1 (stereo not shown) [ketoconazole]				not blocked	
charybdotoxin				blocked	
iberiotoxin				not blocked	
